According to patent US20110086920A1, “Gamma Glutamylcysteine Treatment or Prevention of Oxidative Injury” (priority 2007, published 2011):

Columns and labels:
[1] = test system: glutathione; test: Tissue glutathione levels after intravenous γ-glutamylcysteine supplementation in rats; format: in vivo; details: for Tissue Glutathione Concentration: rats 400 mg/kg IV, mean (95% CI)
Procedure: Ten rats were also administered 400 mg/kg of γ-glutamylcysteine intravenously. Major organ tissues were harvested from these rats at 0, 30, 60, 90, 120, and 240 minutes and assayed for glutathione concentration. […] [table]

[2] = test system: Neurons and Astrocytes; test: Cell death after H2O2 oxidative stress in vitro (MTT, LDH, GSH assays); format: cell-based; details: γ-glutamylcysteine 500 μM; 10 μM H2O2
Source text: FIGS. 1A-F: Effects of γ-glutamylcysteine on Neurons and Astrocytes. Protection of cells as measured by MTT (3-(4,5-Dimethylthiazol-2-yl)-2,5-diphenyltetrazolium bromide) assay, GSH (glutathione) assay, and LDH (lactate dehydrogenase) assay.

[3] = rat, in vivo
Procedure: (§1) FIG. 2: IV γ-glutamylcysteine Supplementation in Rats. Two rats were administered γ-glutamylcysteine intravenously. […] Plasma was collected at 0, 15, 30, 60, 90, and 120 minutes post-administration and assayed for γ-glutamylcysteine levels.
(§2) Two rats were administered γ-glutamylcysteine intravenously. […] Plasma was collected at 0, 15, 30, 60, 90, and 120 minutes post-administration and assayed for γ-glutamylcysteine levels.

[4] = test system: neuronal cells; test: F2-IsoPs level (oxidative stress) in neuronal cells exposed to H2O2; format: cell-based; details: neuronal cells pretreated with GGC 500 μM four hours prior to exposure to H2O2
Source text: To quantify the oxidative stress response, as well as modification of this response by γ-glutamylcysteine supplementation, the inventors will measure isoprostane and isofuran levels. Isoprostanes are prostaglandin like compounds that are produced without cyclooxygenase by free radical induced peroxidation of arachidonic acid. Prostaglandin F2α like compounds, termed F2-isoprostanes (F2IsoPs) have been shown both in vitro and in vivo to be an accurate measure of oxidative stress.

[5] = Plasma γ-glutamylcysteine levels after intravenous administration in rats; format: in vivo
Procedure: as §1, §2

In the case of `N[C@@H](CCC(=O)N[C@@H](CS)C(=O)O)C(=O)O` [γ-glutamylcysteine], the “Tissue Glutathione Concentration” value ([1]; Brain, 0 min, n=5) is reported as 57.3 (3.3-111.3) μM, the “Tissue Glutathione Concentration” value ([1]; Brain, 60 min, n=4) is reported as 302.3 (190.0-414.5) μM and the “Tissue Glutathione Concentration” value ([1]; Brain, 90 min, n=2) is reported as 146.9 (−1200.5-1494.3) μM. For the same molecule, the “Tissue Glutathione Concentration” value ([1]; Brain, 120 min, n=2) was 170.7 (152.0-189.5) μM, the “Tissue Glutathione Concentration” value ([1]; Brain, 240 min, n=2) was 110.7 (54.1-167.3) μM and the “Tissue Glutathione Concentration” value ([1]; GI, 0 min, n=5) was 12.9 (7.2-18.5) μM. The “Tissue Glutathione Concentration” value ([1]; GI, 60 min, n=4) was 189.8 (−5.5-385.0) μM, the “Tissue Glutathione Concentration” value ([1]; GI, 90 min, n=2) was 166.8 (−1699.0-2032.5) μM and the “Tissue Glutathione Concentration” value ([1]; GI, 120 min, n=2) was 14.0 (−1.6-29.6) μM. For the same molecule, the “Tissue Glutathione Concentration” value ([1]; GI, 240 min, n=2) was 18.5 (−100.3-137.3) μM, the “Tissue Glutathione Concentration” value ([1]; Heart, 0 min, n=5) was 210.9 (34.4-387.4) μM and the “Tissue Glutathione Concentration” value ([1]; Heart, 60 min, n=4) was 353.4 (220.9-486.0) μM. The “Tissue Glutathione Concentration” value ([1]; Heart, 90 min, n=2) was 658.9 (504.5-813.2) μM, the “Tissue Glutathione Concentration” value ([1]; Heart, 120 min, n=2) was 165.9 (149.4-182.4) μM and the “Tissue Glutathione Concentration” value ([1]; Heart, 240 min, n=2) was 278.1 (170.7-385.4) μM. For the same molecule, the “Tissue Glutathione Concentration” value ([1]; Kidney, 0 min, n=5) was 14.9 (4.5-25.2) μM, the “Tissue Glutathione Concentration” value ([1]; Kidney, 60 min, n=4) was 13.5 (−9.1-36.2) μM and the “Tissue Glutathione Concentration” value ([1]; Kidney, 90 min, n=2) was 39.1 (−195.0-273.2) μM. For the same molecule, the “Tissue Glutathione Concentration” value ([1]; Kidney, 120 min, n=2) was 13.4 (−16.9-43.6) μM, the “Tissue Glutathione Concentration” value ([1]; Kidney, 240 min, n=2) was 10.2 (−8.9-29.3) μM and the “Tissue Glutathione Concentration” value ([1]; Liver, 0 min, n=5) was 2162.4 (1490.3-2834.5) μM. The “Tissue Glutathione Concentration” value ([1]; Liver, 60 min, n=4) was 5066.4 (−85.9-10218.8) μM, the “Tissue Glutathione Concentration” value ([1]; Liver, 90 min, n=2) was 10832.6 (9616.0-12049.1) μM and the “Tissue Glutathione Concentration” value ([1]; Liver, 120 min, n=2) was 2990.0 (2239.8-3740.1) μM. For the same molecule, the “Tissue Glutathione Concentration” value ([1]; Liver, 240 min, n=2) was 4213.7 (−6431.5-14858.8) μM, the “Tissue Glutathione Concentration” value ([1]; Lung, 0 min, n=5) was 142.2 (50.8-233.7) μM and the “Tissue Glutathione Concentration” value ([1]; Lung, 60 min, n=4) was 293.5 (248.6-338.4) μM. For the same molecule, the “Tissue Glutathione Concentration” value ([1]; Lung, 90 min, n=2) was 412.2 (−571.1-1395.4) μM, the “Tissue Glutathione Concentration” value ([1]; Lung, 120 min, n=2) was 166.4 (−58.3-391.0) μM and the “Tissue Glutathione Concentration” value ([1]; Lung, 240 min, n=2) was 93.2 (−261.7-448.1) μM. For the same molecule, the “Tissue Glutathione Concentration” value ([1]; Muscle, 0 min, n=5) was 228.5 (125-0-331.9) μM, the “Tissue Glutathione Concentration” value ([1]; Muscle, 60 min, n=4) was 307.6 (−1.1-616.3) μM and the “Tissue Glutathione Concentration” value ([1]; Muscle, 90 min, n=2) was 654.5 (44.8-1264.2) μM. For the same molecule, the “Tissue Glutathione Concentration” value ([1]; Muscle, 120 min, n=2) was 170.5 (−137.5-478.6) μM, the “Tissue Glutathione Concentration” value ([1]; Muscle, 240 min, n=2) was 21.9 (−16.3-60.1) μM and the “mean glutathione levels in brain, heart, lung, liver, kidney, gastrointestinal and muscle tissues” value ([1]; rats, 400 mg/kg intravenous) was “increased”. For the same molecule, the tissue glutathione levels ([1]; rats, intravenous) was “significant elevation”, the “cell death after exposure to H2O2” value [2] was “significantly reduce cell death” and the “tolerability of intravenous supplementation” value [3] was “well-tolerated”. For the same molecule, the “clinically visible signs of toxicity” value ([3]; iv) was “no clinically visible signs of toxicity”, the “level of F2-IsoPs (oxidative stress)” value [4] was “reduced” and the “plasma γ-glutamylcysteine levels” value ([5]; rats) was “significant elevation”. For the same molecule, the “time of peak plasma γ-glutamylcysteine concentration post-injection” value ([5]; two rats, plasma at 0-120 min) was 30 min.
